Key:
FGFR3 = biological target: T1, FGFR3 (Homo sapiens, UniProt P22607); test: FGFR3 in vitro kinase inhibitory activity assay; assay type: biochemical; conditions: for IC50: read-out: FGFR3 IC50(μM) or % I
T1 construct: purchased Upstate
Description: FGFR3, VEGFR2 and PDGFR in vitro Kinase Inhibitory Activity Assays
Enzymes (from Upstate), prepared at 2× final concentration, were incubated with test compounds, biotinylated Flt3 substrate (biotin-VASSDNEYFYVDF) (Cell Signalling Technology Inc.) and ATP in the appropriate assay buffer (Table 1). The reaction was allowed to proceed for 3 hours (FGFR3), 1 hour (VEGFR2, PDGFR-beta) at room temperature on a plate shaker at 700 rpm before being stopped with 35 mM EDTA, pH 8 (FGFR3, VEGFR2) or 55 mM EDTA, pH 8 (PDGFR-beta). 5× detection mix/50 mM HEPES pH 7.5, 0.1% BSA, 11.34 nM Eu-anti-pY (PY20) (PerkinElmer) 74 nM SA-XL665 (Cisbio) for FGFR3, 50 mM HEPES, pH 7.5, 0.1% BSA, 11.34 nM Eu-anti-pY (PY20), 187.5 nM SA-XL665 for VEGFR2 and 50 mM HEPES, pH 7.5, 0.1% BSA, 11.34 nM Eu-anti-pY (PT66) (PerkinElmer), 375 nM SA-XL665 (Cisbio) for PDGFR-beta) was then added to each well and the plate sealed and incubated at room temperature for one hour on a plate shaker at 700 rpm. The plate was then read on a Packard Fusion plate reader or a BMG Pherastar both in TRF mode.

Ba/F3-TEL-FGFR3 cells = biological target: T2, Ba/F3-TEL-FGFR3 cells (Homo sapiens, UniProt P22607); test: Ba/F3-TEL-FGFR3 cell proliferation assay (Alamar Blue); assay type: cell-based, murine; conditions: for GI50: 72 hours, read-out: BaF3-TEL-FGFR3 prolif
T2 construct: fused on or other part: TEL (ETV6) N-terminal oligomerising part fused to the FGFR3 kinase part; P41212 (Transcription factor ETV6)
Description: Ba/F3-TEL-FGFR3 & Ba/F3 (WT) Cell Proliferation Assays
Stably transfected Ba/F3-TEL-FGFR3 cells were plated out into black 96-well tissue culture plates with clear bottoms in RPMI medium containing 10% FBS and 0.25 mg/ml G418 at a density of 5×10^3 cells/well (200 μl per well). The parental wild-type Ba/F3 cells (DSMZ no.: ACC 300) were plated out into black 96-well tissue culture plates with clear bottoms in RPMI medium containing 10% FBS and 2 ng/ml mouse IL-3 (R&D Systems) at a density of 2.5×10^3 cells/well (200 μl per well). Plates were placed in an incubator overnight before adding the compounds the following day. Dilutions of compounds were made in DMSO starting at 10 mM and were diluted into the wells to give a final DMSO concentration of 0.1% in assay. Compounds were left on the cells for 72 hours before the plates were removed from the incubator and 20 μl of Alamar Blue™ (Biosource) was added to each well. Plates were placed in the incubator for 4-6 hours before reading plates at 535 nm (excitation)/590 nm (emission) on a Fusion plate reader (Packard). Where inhibition is high an IC50 can be determined.

Ba/F3-Flt3 cells [1] = biological target: T3, Ba/F3-Flt3 cells (Homo sapiens, UniProt P36888, cells depend on it, form not given); test: Ba/F3-Flt3 assay (Alamar Blue); assay type: cell-based, murine; conditions: without IL3
T3 construct: Ba/F3-flt3 − IL3 pIC50; other: without IL3
T3 sequence (P36888 1-993): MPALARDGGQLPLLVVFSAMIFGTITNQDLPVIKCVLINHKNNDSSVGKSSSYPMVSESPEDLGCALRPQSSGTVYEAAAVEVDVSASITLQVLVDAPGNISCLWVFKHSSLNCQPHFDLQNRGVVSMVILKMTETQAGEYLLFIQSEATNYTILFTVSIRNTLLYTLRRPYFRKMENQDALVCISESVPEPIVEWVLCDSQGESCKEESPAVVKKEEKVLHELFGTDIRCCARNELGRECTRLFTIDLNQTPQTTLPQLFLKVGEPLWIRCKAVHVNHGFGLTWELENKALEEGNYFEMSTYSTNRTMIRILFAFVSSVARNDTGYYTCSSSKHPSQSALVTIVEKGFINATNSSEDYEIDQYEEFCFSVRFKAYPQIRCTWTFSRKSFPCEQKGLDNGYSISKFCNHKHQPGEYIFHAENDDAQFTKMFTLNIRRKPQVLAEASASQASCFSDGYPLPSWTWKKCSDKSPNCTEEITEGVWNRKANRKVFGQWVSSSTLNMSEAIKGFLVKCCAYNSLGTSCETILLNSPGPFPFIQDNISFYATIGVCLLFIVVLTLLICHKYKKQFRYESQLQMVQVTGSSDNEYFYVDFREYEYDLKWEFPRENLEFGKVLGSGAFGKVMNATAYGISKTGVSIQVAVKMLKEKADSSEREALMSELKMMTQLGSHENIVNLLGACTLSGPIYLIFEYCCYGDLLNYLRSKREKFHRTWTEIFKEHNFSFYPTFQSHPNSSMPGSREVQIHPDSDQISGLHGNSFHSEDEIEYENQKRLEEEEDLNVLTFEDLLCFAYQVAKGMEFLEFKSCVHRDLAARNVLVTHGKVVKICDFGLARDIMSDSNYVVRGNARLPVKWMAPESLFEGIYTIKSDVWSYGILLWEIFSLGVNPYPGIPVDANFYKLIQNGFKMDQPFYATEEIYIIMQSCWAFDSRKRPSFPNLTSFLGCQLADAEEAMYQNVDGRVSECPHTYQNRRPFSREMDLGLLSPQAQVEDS
Text: (§1) Ba/F3, a murine interleukin-3 dependent pro-B cell line is increasingly popular as a model system for assessing both the potency and downstream signaling of kinase oncogenes, and the ability of small-molecule kinase inhibitors to block kinase activity. Facilitated by their growth properties. Ba/F3 cells have recently been adapted to high throughput assay formats for compound profiling. Further, several published approaches show promise in predicting resistance to small-molecule kinase inhibitors elicited by point mutations interfering with inhibitor binding (Ba/F3 cells and their use in kinase drug discovery; Markus Warmuth, Sungjoon Kim, Xiang-ju Gu, Gang Xia and Francisco Adria'n; Curr Opin Oncol 19:55-60).
(§2) Ba/F3-Flt3 cells (cultured in phenol red free RPMI-1640, 10% A FCS and 50 μg/ml Gentamycin at 37° C. and 5% 002) were plated at a density of 10000 cells in a total volume of 180 μl medium in a black TC-treated sterile 96-well plate (Corning). After 24 hours, drugs in different dilutions were added to a final volume of 200 μl and at a final DMSO concentration of 0.2% prior to incubation at 37° C., and 5% CO2.
(§3) After 24 h, to each well 40 μl Alamar Blue solution (Aldrich) was added and the cells were further incubated for 4 hours at 37° C. Fluorescence (ex. 544, em. 590 nm) was measured using a fluorescence reader (Labsystems) and IC50's were calculated.
(§4) In the condition containing IL3, 10 ng/ml of murine IL3 (PeproTech) was added during compound incubation.

Ba/F3-Flt3 cells [2] = test: Ba/F3-Flt3 assay (Alamar Blue); assay type: cell-based, murine; conditions: Mus musculus, 24 h; with 10 ng/ml murine IL3; read-out: Ba/F3-flt3 + IL3 pIC50 (converted)
Text: as §1, §2, §3, §4

T1 sequence (P22607 23-806): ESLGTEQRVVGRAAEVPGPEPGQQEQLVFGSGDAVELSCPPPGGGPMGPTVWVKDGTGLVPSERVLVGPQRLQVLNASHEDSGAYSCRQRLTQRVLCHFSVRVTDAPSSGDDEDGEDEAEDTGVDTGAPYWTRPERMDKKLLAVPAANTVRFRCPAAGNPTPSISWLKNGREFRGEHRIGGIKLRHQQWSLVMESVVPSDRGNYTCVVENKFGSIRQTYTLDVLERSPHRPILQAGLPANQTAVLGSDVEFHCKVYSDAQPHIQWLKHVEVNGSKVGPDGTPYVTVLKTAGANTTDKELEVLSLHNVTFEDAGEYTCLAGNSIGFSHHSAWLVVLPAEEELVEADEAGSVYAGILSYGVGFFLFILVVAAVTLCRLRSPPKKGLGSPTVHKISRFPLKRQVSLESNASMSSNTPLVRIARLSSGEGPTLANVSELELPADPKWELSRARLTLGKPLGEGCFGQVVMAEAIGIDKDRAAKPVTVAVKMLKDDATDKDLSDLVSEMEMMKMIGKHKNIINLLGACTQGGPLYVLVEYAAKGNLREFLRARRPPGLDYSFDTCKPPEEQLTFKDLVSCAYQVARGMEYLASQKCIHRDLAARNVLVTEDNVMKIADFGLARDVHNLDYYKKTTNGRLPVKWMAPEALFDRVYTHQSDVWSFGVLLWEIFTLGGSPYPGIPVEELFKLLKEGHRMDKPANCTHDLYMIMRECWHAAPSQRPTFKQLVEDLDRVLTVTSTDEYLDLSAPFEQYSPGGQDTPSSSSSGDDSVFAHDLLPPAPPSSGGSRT
T2 sequence (P22607 whole entry, change not shown, the tested form may be a part): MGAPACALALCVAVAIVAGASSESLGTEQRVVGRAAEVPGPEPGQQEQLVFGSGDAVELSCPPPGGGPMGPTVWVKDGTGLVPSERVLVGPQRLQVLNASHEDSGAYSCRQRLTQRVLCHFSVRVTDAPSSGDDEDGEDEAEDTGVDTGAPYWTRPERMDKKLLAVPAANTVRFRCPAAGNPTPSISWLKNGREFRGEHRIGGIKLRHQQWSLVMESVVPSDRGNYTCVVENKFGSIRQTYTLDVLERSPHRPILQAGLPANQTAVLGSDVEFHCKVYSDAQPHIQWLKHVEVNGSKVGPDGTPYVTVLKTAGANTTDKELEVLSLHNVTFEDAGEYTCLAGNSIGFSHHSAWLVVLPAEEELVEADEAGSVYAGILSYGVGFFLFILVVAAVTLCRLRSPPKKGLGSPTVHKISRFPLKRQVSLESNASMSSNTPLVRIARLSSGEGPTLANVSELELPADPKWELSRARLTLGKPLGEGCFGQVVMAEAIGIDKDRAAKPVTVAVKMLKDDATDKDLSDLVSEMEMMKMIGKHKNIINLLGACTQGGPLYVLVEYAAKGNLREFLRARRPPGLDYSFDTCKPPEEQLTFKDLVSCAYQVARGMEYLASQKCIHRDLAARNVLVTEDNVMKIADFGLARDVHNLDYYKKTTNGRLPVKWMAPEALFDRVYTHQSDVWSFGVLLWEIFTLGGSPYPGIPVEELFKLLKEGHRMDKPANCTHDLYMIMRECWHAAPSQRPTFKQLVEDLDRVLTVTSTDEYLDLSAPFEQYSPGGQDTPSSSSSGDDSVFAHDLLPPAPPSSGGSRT

Compound | IC50 (FGFR3) | GI50 (Ba/F3-TEL-FGFR3 cells) | Ba/F3-flt3 − IL3 pIC50 (Ba/F3-Flt3 cells [1]) | IC50 (Ba/F3-Flt3 cells [2]) | FGFR3 IC50(μM) or % I (FGFR3; % I at 0.003 (unit not given)) | BaF3-TEL-FGFR3 prolif (μM) (Ba/F3-TEL-FGFR3 cells; % at 0.100 μM)
CC(C)Oc1cc(NC(=O)NCC(F)(F)F)cc(-c2cnc3cc(-c4nncs4)ccn23)c1.Cl [Compound F-19, 1-[3-Isopropoxy-5-(7-[1,3,4]thiadiazol-2-yl-imidazo[1,2-a]pyridin-3-yl)-phenyl]-3-(2,2,2-trifluoro-ethyl)-urea] | 0.00247 µM | 42 nM | <5 | > 10000 nM | – | –
COCc1cc(NC(=O)NCC(F)(F)F)cc(-c2cnc3cc(-c4nnc(C)o4)ccn23)c1 [Compound F-7, 1-{3-Methoxymethyl-5-[7-(5-methyl-[1,3,4]oxadiazol-2-yl)-imidazo[1,2-a]pyridin-3-yl]-phenyl}-3-(2,2,2-trifluoro-ethyl)-urea] | 0.018 µM | 350 nM | <5 | > 10000 nM | – | –
Cc1nc(N)cc(-c2ccn3c(-c4cc(NC(=O)NCC(F)(F)F)cc(OC(C)C)c4)cnc3c2)n1 [Compound F-4, 1-{3-[7-(6-Amino-2-methyl-pyrimidin-4-yl)-imidazo[1,2-a]pyridin-3-yl]-5-isopropoxy-phenyl}-3-(2,2,2-trifluoro-ethyl)-urea] | – | – | <5 | > 10000 nM | 45.0% at 0.003 | 50.0% at 0.100 μM
Cc1nnc(-c2ccn3c(-c4cc(NC(=O)NCC(F)(F)F)cc(OC5CCC5)c4)cnc3c2)o1 [Compound F-11, 1-{3-Cyclobutoxy-5-[7-(5-methyl-[1,3,4]oxadiazol-2-yl)-imidazo[1,2-a]pyridin-3-yl]-phenyl}-3-(2,2,2-trifluoro-ethyl)-urea] | 0.046 µM | 520 nM | <5 | > 10000 nM | – | –
CC(C)Oc1cc(NC(=O)NCC(F)(F)F)cc(-c2cnc3cc(-c4nccc(C(C)C)n4)ccn23)c1 [Compound F-29, 1-{3-Isopropoxy-5-[7-(4-isopropyl-pyrimidin-2-yl)-imidazo[1,2-a]pyridin-3-yl]-phenyl}-3-(2,2,2-trifluoroethyl)-urea] | 0.092 µM | 3160 nM | <5 | > 10000 nM | – | –
CC(C)Oc1cc(NC(=O)NCC(F)(F)F)cc(-c2cnc3cc(OCCCO)ccn23)c1 [Compound F-18, 1-{3-[7-(3-Hydroxy-propoxy)-imidazo[1,2-a]pyridin-3-yl]-5-isopropoxy-phenyl}-3-(2,2,2-trifluoro-ethyl)-urea] | 0.02 µM | 440 nM | <5 | > 10000 nM | – | –
CCOc1cc(NC(=O)NCC(F)(F)F)cc(-c2cnc3cc(-c4ccnc(C(F)(F)F)n4)ccn23)c1 [Compound F-16, 1-{3-Ethoxy-5-[7-(2-trifluoromethyl-pyrimidin-4-yl)-imidazo[1,2-a]pyridin-3-yl]-phenyl}-3-(2,2,2-trifluoro-ethyl)-urea] | 0.027 µM | 470 nM | <5 | > 10000 nM | – | –
CC(C)Oc1cc(NC(=O)NCC(F)(F)F)cc(-c2cnc3cc(N4CCC(F)(F)CC4)ccn23)c1 [Compound F-13, 1-{3-[7-(4,4-Difluoro-piperidin-1-yl)-imidazo[1,2-a]pyridin-3-yl]-5-isopropoxy-phenyl}-3-(2,2,2-trifluoro-ethyl)-urea] | 0.061 µM | 820 nM | <5 | > 10000 nM | – | –
CC(C)Oc1cc(NC(=O)NCC(F)(F)F)cc(-c2cnc3cc(-c4nccc(C(C)(C)CO)n4)ccn23)c1 [Compound F-27, 1-(3-{7-[4-(2-Hydroxy-1,1-dimethylethyl)-pyrimidin-2-yl]-imidazo[1,2-a]pyridin-3-yl}-5-isopropoxy-phenyl)-3-(2,2,2-trifluoro-ethyl)-urea] | 0.042 µM | 1580 nM | <5 | > 10000 nM | – | –

— patent publication US8722687B2, “Imidazo [1,2-A]pyridine derivatives as FGFR kinase inhibitors for use in therapy” (Astex Therapeutics Ltd, priority 2009, dated 2014)
